According to patent publication US6737383B1, “Herbicidal oxadiazolidines” (priority 1999, dated 2004):

What was measured:
velvetleaf = assay: Test B pre/postemergence velvetleaf; format: in vivo, Abutilon theophrasti
In short: (§1)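 Herbicidal effect was estimated by eye on a ten-point control scale after plants spent twelve to sixteen days in a greenhouse following soil or foliar treatment. Foliar sprays targeted plants at one to four leaves; all doses were formulated in a non-phytotoxic solvent with surfactant.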

soybean = assay: Test B pre/postemergence soybean; format: in vivo, Glycine max
In short: as §1

duck salad = assay: Test B flood test duck salad; format: in vivo, Heteranthera limosa; conditions: for Plant response rating, Ducksalad (0 to 10 scale, 0 is no effect, 10 is complete control) / Ducksalad plant response rating (0 to 10 scale, 0 is no effect, 10 is complete control): visual evaluation after twelve to sixteen days; for Ducksalad plant response rating (0 to 10 scale, 0 is no effect, 10 is complete control): under heading Pre-emergence
In short: (§2)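 Flood test on plants grown to the 2-leaf stage; treated plants kept in greenhouse twelve to sixteen days, then visually rated against controls on a 0 (no effect) to 10 (complete control) scale.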

smallflower flatsedge = assay: Test B flood test smallflower flatsedge; format: in vivo, Cyperus difformis; conditions: for Plant response rating, S. Flatsedge (0 to 10 scale, 0 is no effect, 10 is complete control) / S. Flatsedge plant response rating (0 to 10 scale, 0 is no effect, 10 is complete control): visual evaluation after twelve to sixteen days; for S. Flatsedge plant response rating (0 to 10 scale, 0 is no effect, 10 is complete control): under heading Pre-emergence
In short: as §2

[1] = Postemergence, Rate 250 g/ha, scale 0 to 10, 0 is no effect, 10 is complete control
[2] = Postemergence, Rate 500 g/ha, scale of 0 to 10 where 0 is no effect and 10 is complete control
[3] = Preemergence, Rate 62 g/ha, scale 0 to 10 (0 no effect, 10 complete control)
[4] = Preemergence, Rate 125 g/ha, scale of 0 to 10 where 0 is no effect and 10 is complete control
[5] = Preemergence, Rate 250 g/ha, scale 0 to 10, 0 is no effect, 10 is complete control
[6] = Preemergence, Rate 500 g/ha, scale 0 to 10, 0 is no effect, 10 is complete control
[7] = Rate 62 g/ha, Postemergence, scale of 0 to 10 where 0 is no effect and 10 is complete control
[8] = Rate 62 g/ha, flood test species, Pre-emergence
[9] = Rate 125 g/ha, flood test species
[10] = Rate 250 g/ha, Pre-emergence, flood-test species, scale 0 to 10, 0 is no effect, 10 is complete control
[11] = Rate 500 g/ha, Pre-emergence, flood test species, scale 0 to 10 (0 no effect, 10 complete control)
[12] = Postemergence, Rate 250 g/ha, scale 0 to 10
[13] = Rate 62 g/ha, Postemergence, scale 0 to 10, 0 no effect, 10 complete control
[14] = Rate 125 g/ha, Postemergence, scale 0 to 10, 0 is no effect, 10 is complete control
[15] = Postemergence block (flood test species), Rate 250 g/ha, scale 0 to 10
[16] = Postemergence section (flood test species), Rate 500 g/ha, scale of 0 to 10 where 0 is no effect and 10 is complete control
[17] = Rate 62 g/ha, Postemergence (flood test), scale 0 to 10, 0 no effect, 10 complete control
[18] = Rate 125 g/ha, Postemergence section (flood test species), scale 0 to 10, 0 is no effect, 10 is complete control
[19] = Postemergence, Rate 62 g/ha, scale 0 to 10, 0 is no effect, 10 is complete control
[20] = Postemergence, Rate 125 g/ha, scale of 0 to 10 where 0 is no effect and 10 is complete control
[21] = Preemergence, Rate 62 g/ha, scale of 0 to 10 where 0 is no effect and 10 is complete control
[22] = Preemergence, Rate 250 g/ha, scale 0 to 10 (0 no effect, 10 complete control)
[23] = Preemergence, Rate 500 g/ha, scale of 0 to 10 where 0 is no effect and 10 is complete control
[24] = Rate 500 g/ha, Postemergence, scale 0 to 10, 0 is no effect, 10 is complete control
[25] = Rate 250 g/ha, Pre-emergence (flood test species), scale 0 to 10, 0 is no effect, 10 is complete control
[26] = Rate 500 g/ha, Pre-emergence section of Table B, 0 to 10 scale (0 no effect, 10 complete control)

CC1CC1Cn1c(=O)on(C(=O)N(c2ccc(F)cc2)C(C)C)c1=O (stereo not shown) [Compound 402]
6: Plant response rating, Soybean (soybean; [1])
2: S. Flatsedge plant response rating (smallflower flatsedge; [11])
3: Velvetleaf plant response rating (velvetleaf; [5])
4: Plant response rating, Velvetleaf (velvetleaf; [1]) | Velvetleaf plant response rating (velvetleaf; [2]) | Soybean plant response rating (soybean; [7])
1: Soybean plant response rating (soybean; [6])
0: Plant response rating, Velvetleaf (velvetleaf; [3]) | Plant response rating, Velvetleaf (velvetleaf; [4]) | Velvetleaf plant response rating (velvetleaf; [7]) | Plant response rating, Soybean (soybean; [3]) | Plant response rating, Soybean (soybean; [4]) | Soybean plant response rating (soybean; [5]) | Plant response rating, Ducksalad (0 to 10 scale, 0 is no effect, 10 is complete control) (duck salad; [8]) | Ducksalad plant response rating (0 to 10 scale, 0 is no effect, 10 is complete control) (duck salad; [9]) | Ducksalad plant response rating (duck salad; [10]) | Ducksalad plant response rating (duck salad; [11]) | Plant response rating, S. Flatsedge (0 to 10 scale, 0 is no effect, 10 is complete control) (smallflower flatsedge; [8]) | S. Flatsedge plant response rating (0 to 10 scale, 0 is no effect, 10 is complete control) (smallflower flatsedge; [9]) | S. Flatsedge plant response rating (smallflower flatsedge; [10])
8: Velvetleaf plant response rating (velvetleaf; [6]) | Soybean plant response rating (soybean; [2])

CC(C)N(C(=O)n1oc(=O)n(CCC#N)c1=O)c1ccccc1 [Compound 436]
4: Soybean plant response rating (soybean; [2])
0: Velvetleaf plant response rating (velvetleaf; [12]) | Plant response rating, Velvetleaf (velvetleaf; [3]) | Plant response rating, Velvetleaf (velvetleaf; [4]) | Velvetleaf plant response rating (velvetleaf; [5]) | Velvetleaf plant response rating (velvetleaf; [13]) | Velvetleaf plant response rating (velvetleaf; [14]) | Soybean plant response rating (soybean; [12]) | Plant response rating, Soybean (soybean; [3]) | Plant response rating, Soybean (soybean; [4]) | Soybean plant response rating (soybean; [5]) | Soybean plant response rating (soybean; [6]) | Soybean plant response rating (soybean; [13]) | Soybean plant response rating (soybean; [14]) | Ducksalad plant response rating (duck salad; [15]) | Ducksalad plant response rating (duck salad; [16]) | Ducksalad plant response rating (duck salad; [17]) | Ducksalad plant response rating (duck salad; [18]) | S. Flatsedge plant response rating (smallflower flatsedge; [15]) | S. Flatsedge plant response rating (smallflower flatsedge; [16]) | S. Flatsedge plant response rating (smallflower flatsedge; [17]) | S. Flatsedge plant response rating (smallflower flatsedge; [18])
7: Velvetleaf plant response rating (velvetleaf; [6])
3: Velvetleaf plant response rating (velvetleaf; [2])

C=C(Cn1c(=O)on(C(=O)N(c2ccccc2)C(C)C)c1=O)C(C)C [Compound 649]
3: Soybean plant response rating (soybean; [24])
0: Plant response rating, Velvetleaf (velvetleaf; [19]) | Velvetleaf plant response rating (velvetleaf; [20]) | Velvetleaf plant response rating (velvetleaf; [21]) | Velvetleaf plant response rating (velvetleaf; [4]) | Plant response rating, Velvetleaf (velvetleaf; [22]) | Plant response rating, Velvetleaf (velvetleaf; [23]) | Velvetleaf plant response rating (velvetleaf; [24]) | Soybean plant response rating (soybean; [21]) | Soybean plant response rating (soybean; [4]) | Plant response rating, Soybean (soybean; [22]) | Plant response rating, Soybean (soybean; [23]) | Plant response rating, Ducksalad (0 to 10 scale, 0 is no effect, 10 is complete control) (duck salad; [8]) | Ducksalad plant response rating (0 to 10 scale, 0 is no effect, 10 is complete control) (duck salad; [9]) | Ducksalad plant response rating (duck salad; [25]) | Ducksalad plant response rating (duck salad; [26]) | Plant response rating, S. Flatsedge (0 to 10 scale, 0 is no effect, 10 is complete control) (smallflower flatsedge; [8]) | S. Flatsedge plant response rating (0 to 10 scale, 0 is no effect, 10 is complete control) (smallflower flatsedge; [9]) | S. Flatsedge plant response rating (smallflower flatsedge; [25]) | S. Flatsedge plant response rating (smallflower flatsedge; [26])
2: Plant response rating, Soybean (soybean; [19]) | Soybean plant response rating (soybean; [20])

Cc1nc(Cl)sc1C(C)n1c(=O)on(C(=O)N(c2ccccc2)C(C)C)c1=O (stereo not shown) [Compound 407]
2: Velvetleaf plant response rating (velvetleaf; [2]) | Plant response rating, Soybean (soybean; [1]) | Soybean plant response rating (soybean; [2])
0: Plant response rating, Velvetleaf (velvetleaf; [1]) | Plant response rating, Velvetleaf (velvetleaf; [3]) | Plant response rating, Velvetleaf (velvetleaf; [4]) | Velvetleaf plant response rating (velvetleaf; [5]) | Velvetleaf plant response rating (velvetleaf; [6]) | Plant response rating, Soybean (soybean; [3]) | Plant response rating, Soybean (soybean; [4]) | Soybean plant response rating (soybean; [5]) | Soybean plant response rating (soybean; [6]) | Plant response rating, Ducksalad (0 to 10 scale, 0 is no effect, 10 is complete control) (duck salad; [8]) | Ducksalad plant response rating (0 to 10 scale, 0 is no effect, 10 is complete control) (duck salad; [9]) | Ducksalad plant response rating (duck salad; [10]) | Ducksalad plant response rating (duck salad; [11]) | Plant response rating, S. Flatsedge (0 to 10 scale, 0 is no effect, 10 is complete control) (smallflower flatsedge; [8]) | S. Flatsedge plant response rating (0 to 10 scale, 0 is no effect, 10 is complete control) (smallflower flatsedge; [9]) | S. Flatsedge plant response rating (smallflower flatsedge; [10]) | S. Flatsedge plant response rating (smallflower flatsedge; [11])
